Data taken from US20230135093A1, “TRIAZOLYL DERIVATIVES AS GABA A ALPHA5 PAM” (Hoffmann-La Roche Inc., priority 2020, published 2023).

How the values were obtained:
[1] = target: T1, h-GABA-A α5β3γ2 (Homo sapiens, UniProt P18507+P31644); assay: Two-electrode voltage clamp electrophysiology in Xenopus oocytes expressing GABAA receptors (modulation of GABA EC20 current); assay type: cell-based; conditions: Table 1; for Efficacy (GABA) %: % modulation of GABA EC20 = 100*(Fold increase-1); for Fold increase h-GABA-A α5β3γ2 oocyte: Xenopus oocytes, GABA EC20, test compound at approximatively 30 fold its Ki
T1 construct: expressed in transfected cells; host or cells: Xenopus laevis oocytes, micro-injected with subunit RNA
Method in brief: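 Oocytes injected with α5β3γ2 subunit RNA, recorded 3-5 days later by two-electrode clamp at −80 mV, room temperature, pH 7.4. The compound, at ~30-fold its Ki, was co-applied during a second GABA EC20 pulse. Efficacy was the extremum of the point-by-point second/first current ratio, given as % modulation (100×(fold−1)); n≥3 oocytes.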

[2] = target: T1, h-GABA-A α5β3γ2; assay: [3H]flumazenil competition binding assay on membranes of HEK293 cells expressing GABAA receptors; conditions: Table 1; displacement of [3H]-Flumazenil (0.5 nM), HEK293 cells expressing human receptors, means of two determinations
Method in brief: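 Membranes from HEK293 cells transiently expressing human α5β3γ2 were incubated 1 h at 4 °C in Krebs-tris pH 7.5 with 0.5 nM [3H]flumazenil and test compound. Nonspecific binding was set with 10^−5 M diazepam. Bound radioactivity was filtered and counted. Ki is the mean of two determinations.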

| Compound | Efficacy (GABA) % [1] [%] | Fold increase h-GABA-A α5β3γ2 oocyte [1] | Ki [2] [nM] |
| --- | --- | --- | --- |
| Cn1nnc(-c2ccc(C(F)(F)F)cc2F)c1Cn1ncc(N2CC(OC3CCC3)C2)cc1=O [Example 77, 5-[3-(cyclo-butoxy)azetidin-1-yl]-2-[[5-[2-fluoro-4-(trifluoro-methyl)phenyl]-3-methyl-triazol-4-yl]methyl]pyridazin-3-one] | 66 | 1.66 | 18.4 |
| Cn1nnc(-c2ccc(Cl)cc2F)c1Cn1ncc(N2CC(Oc3ccncn3)C2)cc1=O [Example 78, 2-[[5-(4-chloro-2-fluoro-phenyl)-3-methyl-triazol-4-yl]methyl]-5-(3-pyrimidin-4-yloxyazetidin-1-yl)pyridazin-3-one] | 106 | 2.06 | 11.2 |
| Cn1nnc(-c2ccc(Cl)cc2F)c1Cn1ncc(N2CC(Oc3cccnn3)C2)cc1=O [Example 79, 2-((5-(4-chloro-2-fluoro-phenyl)-3-methyl-triazol-4-yl)methyl)-5-(3-pyridazin-3-yloxyazetidin-1-yl)pyridazin-3-one] | 88 | 1.88 | 11 |
| Cn1nnc(-c2ccc(Cl)cc2F)c1Cn1ncc(N2CC(Oc3ccc(Cl)cn3)C2)cc1=O [Example 80, 2-[[5-(4-chloro-2-fluoro-phenyl)-3-methyl-triazol-4-yl]methyl]-5-[3-[(5-chloro-2-pyridyl)oxy]azetidin-1-yl]pyridazin-3-one] | 72 | 1.72 | 16.8 |
| CCn1nnc(-c2ccc(Cl)cc2F)c1Cn1ncc(N2CC(OC3CCC3)C2)cc1=O [Example 85, 2-[[5-(4-chloro-2-fluoro-phenyl)-3-ethyl-triazol-4-yl]methyl]-5-[3-(cyclobutoxy)azetidin-1-yl]pyridazin-3-one] | 143 | 2.43 | 18.5 |

Results, then the molecule that gave them:

| Efficacy (GABA) % [1] [%] | Fold increase h-GABA-A α5β3γ2 oocyte [1] | Ki [2] [nM] | Compound |
| --- | --- | --- | --- |
| 110 | 2.1 | 19.9 | COc1cc(-c2cnn(Cc3c(-c4ccc(C)nc4)nnn3C)c(=O)c2)ccn1 [Example 81, 5-(2-methoxy-4-pyridyl)-2-((3-methyl-5-(6-methyl-3-pyridyl)triazol-4-yl)methyl)pyridazin-3-one] |
| 236 | 3.36 | 31 | COc1ncc(-c2cnn(Cc3c(-c4ccc(C)nc4)nnn3C)c(=O)c2)cc1Cl [Example 82, 5-(5-chloro-6-methoxy-3-pyridyl)-2-((3-methyl-5-(6-methyl-3-pyridyl)triazol-4-yl)methyl)pyridazin-3-one] |
| 108 | 2.08 | 14.7 | Cn1nnc(-c2ccc(C(F)(F)F)cc2F)c1Cn1ncc(N2CC(Oc3cccnn3)C2)cc1=O [Example 83, 2-[[5-[2-fluoro-4-(trifluoromethyl)phenyl]-3-methyl-triazol-4-yl]methyl]-5-(3-pyridazin-3-yloxyazetidin-1-yl)pyridazin-3-one] |
| 73 | 1.73 | 10.2 | Cn1nnc(-c2ccc(C(F)(F)F)cc2F)c1Cn1ncc(N2CC(Oc3ccccn3)C2)cc1=O [Example 84, 2-[[5-[2-fluoro-4-(trifluoromethyl)phenyl]-3-methyl-triazol-4-yl]methyl]-5-[3-(2-pyridyloxy)azetidin-1-yl]pyridazin-3-one] |
| 136 | 2.36 | 10.8 | CCn1nnc(-c2ccc(Cl)cc2F)c1Cn1ncc(N2CC(OCC(F)F)C2)cc1=O [Example 86, 2-[[5-(4-chloro-2-fluoro-phenyl)-3-ethyl-triazol-4-yl]methyl]-5-[3-(2,2-difluoro-ethoxy)azetidin-1-yl]pyridazin-3-one] |
